# Laboratory results reported in US8119116B2, “Therapeutics for cancer using 3-bromopyruvate and other selective inhibitors of ATP production” (John Hopkins University School of Medicine, priority 2001, dated 2012).
# Assays:
# AS-30D hepatoma cells = test: Hepatoma cell viability by trypan blue; assay type: cell-based, rat; details: 5 mM, 12 h
# Description: AS-30D hepatoma cells grown in the peritoneal cavity of Sprague Dawley female rats (see Materials) were adapted to grow in tissue culture in Dulbecco's modified Eagle's medium containing 10% fetal bovine serum. Cells were maintained at 37° C. in a humidified atmosphere containing 5% CO2, and counted in a Neubauer chamber after trypan blue dye addition (cell/dye volume=1/1) by visualization under a Nikon inverted microscope.
# The studies described above using the VX2 tumor model for liver cancer predict that 2DOG and 3BrPA may have the capacity to kill hepatoma cells expressing the high glycolytic/high hexokinase phenotype. […] Cell killing was assessed in these experiments by counting those cells in which trypan blue had entered.
# [1] = system: liver implanted VX2 tumors; test: Direct intraarterial injection into liver implanted VX2 tumors, tumor histology; assay type: in vivo, rabbit; details: single intraarterial injection
# From the text: The rabbit VX2 tumor was selected for implantation in the liver because of the similarities of its blood supply to that of human hepatomas. Other attributes of this tumor include rapid tumor growth, development of a sizable tumor that can be readily identified by x-ray imaging (fluoroscopy), and a biochemical phenotype characteristic of advanced stage tumors, i.e., high glycolysis and elevated levels of mitochondrial bound hexokinase. In addition, the rabbit is large enough that selective manipulation of catheters in the hepatic artery from the common femoral artery for delivery of agents is possible. Adult New Zealand white rabbits (32 total, Robinson Services, Inc.) weighing 3.5-4.2 kg were used. Studies with these animals were approved by the Johns Hopkins University Animal Care and Use Committee and carried out according to their guidelines. For successful implantation of the VX2 tumor into the liver, it was first grown for 2 weeks on the hind leg of a carrier rabbit. Each carrier rabbit was used to supply tumor cells for implantation into the left lobe of the liver of 2 separate rabbits. All animals, carriers and recipients, were anesthetized with a mixture of acepromazine (2.5 mg/kg) and ketamine hydrochloride (44 mg/kg) administered intramuscularly. Intravenous access was gained via a marginal ear vein and sodium pentothal was given intravenously to maintain anesthesia. The VX2 tumor was then excised from the carrier rabbit and placed in Hanks solution. Chunks of the tumor were minced in the same solution. Then, the abdomens of the recipient rabbits were shaved and prepped with betadine after which a midline subxyphoid incision was made. The anterior surface of the liver was exposed and tumor cells (0.1-0.2 ml) from the minced donor tumor were directly implanted onto the left lobe of the liver using the outer cannula of a 21-gauge angiocatheter. This method allows the growth of a single solitary, well-demarcated tumor in the liver of each recipient rabbit. The abdomen was closed in 2 layers. Proper aseptic technique was rigorously observed during each implantation. After surgery, animals were returned to their cages, kept warm with blankets, and monitored in the animal laboratory under the direct supervision of a physician or a technician until they recovered from anesthesia. […] The tumors were allowed to grow for another 14 days at which time they reached an ellipsoidal shape with dimension of approximately 1.5×1.8×2.5 cm. […]
# Administration of anesthesia, intravenous access and sodium pentothal anesthesia were carried out as described in Example 12. […] The tumor could readily be visualized as a region of hypervascular blush located on the left side of the liver near the gastric fundus. […]
# [2] = system: surrounding liver tissue and major tissues; test: Histology of surrounding liver and major tissues after intraarterial injection or embolization; details: rabbit, in vivo
# Description: Administration of anesthesia, intravenous access and sodium pentothal anesthesia were carried out as described in Example 12. Transcatheter hepatic artery injection of 3-BrPA was performed under fluoroscopy. The animals were brought to the angiography suite and intubated using a size 3.0 mm endotracheal tube (Mallinkrodt Medical, St. Louis, Mo.) but not ventilated. Surgical cut-down was performed to gain access into the right common femoral artery, after which a 3 French sheath (Cook Inc., Bloomington, Ind.) was placed. A specially manufactured 2 French catheter with a tip in the shape of a hockey-stick (JB1 catheter, Cook Inc., Bloomington, Ind.) was manipulated into the celiac axis after which a celiac arteriogram was performed in order to delineate the blood supply to the liver and confirm the location of the tumor. The tumor could readily be visualized as a region of hypervascular blush located on the left side of the liver near the gastric fundus. […]
# Normal tissues and tumors were fixed in 10% formalin, sliced at […] intervals for gross examination, and then embedded completely in paraffin after which […] sections were stained with hemotoxylin and eosin. Tumor viability was estimated by visual inspection and expressed as a percentage of viable tumor area for each slice. The overall percentage of viable tumor in each rabbit was calculated. […]
# [3] = system: liver implanted VX2 tumors; test: Systemic delivery via marginal ear vein, effect on liver implanted VX2 tumors; assay type: in vivo, rabbit; details: 25 ml, 0.5 mM via a marginal ear vein
# Description: (§1) Normal tissues and tumors were fixed in 10% formalin, sliced at […] intervals for gross examination, and then embedded completely in paraffin after which […] sections were stained with hemotoxylin and eosin. Tumor viability was estimated by visual inspection and expressed as a percentage of viable tumor area for each slice. The overall percentage of viable tumor in each rabbit was calculated.
# (§2) Finally, it was important to examine the effect of 3-BrPA when delivered systemically (i.e., via the general circulation) on both animal toxicity and its capacity to damage liver implanted tumors.
# "metastatic" lung tumors = test: Systemic delivery via marginal ear vein, effect on metastatic lung tumors; assay type: in vivo, rabbit; details: 25 ml, 0.5 mM, 4 days
# Description: as §1, §2
structure (smiles),measurement,setting,value
"O=C(O)C(=O)CBr [3BrPA, 3-bromopyruvic acid]",cells killed (trypan blue uptake),AS-30D hepatoma cells,killing all cells
same,maximal number of non-viable cells observed in any one experiment,[1],90%
same,total non-viable cells in the tumor,"[1]; 25 ml 0.5 mM, 4 days",84±5%
same,viable cells in the tumor,"[1]; 25 ml 0.5 mM, 4 days",16±5%
same,necrosis in tumor sections outside the central core region,[1]; 4 days,~100%
same,damage to 9 major tissues,[2],In no case was there evidence for damage
same,"state of portal veins, sinusoids and bile ducts",[2],remained completely intact
same,killing effect on liver implanted VX2 tumors,[3],no killing effect
same,size of secondary tumors in the lungs,"""metastatic"" lung tumors",only very small tumors
same,"""metastatic"" lung tumors greater than 1 mm in diameter","""metastatic"" lung tumors; 5 in untreated animals",almost complete disappearance and none
